Legend:
Format in all cases: in vivo
Veronica persica (VERPE) [1] = assay: B. Herbicidal post-emergence efficacy, VERPE
Experimental: (§1) Seeds of mono- and dicotyledonous weed plants were placed in plastic pots in sandy loam soil (doubly sown with in each case one species of mono- or dicotyledonous weed plants per pot), covered with soil and cultivated in a greenhouse under controlled growth conditions. 2 to 3 weeks after sowing, the test plants were treated at the one-leaf stage. The compounds of the invention, formulated in the form of wettable powders (WP) or as emulsion concentrates (EC), were applied onto the green parts of the plants as aqueous suspension or emulsion with addition of 0.5% additive at a water application rate of 600 liters per hectare (converted). After the test plants had been kept in the greenhouse under optimum growth conditions for about 3 weeks, the activity of the preparations was rated visually in comparison to untreated controls.
(§2) For example, • 100% efficacy=plants have died, • 0% efficacy=like untreated control plants
(§3) Tables B1a to B12c below show the effects of selected inventive compounds of the general formula (I) according to table 1 on various harmful plants at an application rate corresponding to 1280 g/ha or less, which were obtained by the experimental procedure mentioned above.

[2] = test system: Amaranthus retroflexus (AMARE); assay: B. Herbicidal post-emergence efficacy, AMARE
Experimental: as §1, §2, §3

[3] = test system: Digitaria sanguinalis (DIGSA); assay: A. Herbicidal pre-emergence efficacy, DIGSA; details: scored visually after about 3 weeks vs untreated controls
Text: (§4) Seeds of mono- and dicotyledonous weed plants were placed in plastic pots in sandy loam soil (doubly sown with one species each of mono- or dicotyledonous weed plants per pot) and covered with soil. The compounds of the invention, formulated in the form of wettable powders (WP) or as emulsion concentrates (EC), were then applied onto the surface of the covering soil as aqueous suspension or emulsion with addition of 0.5% additive at a water application rate of 600 liters per hectare (converted). After the treatment, the pots were placed in a greenhouse and kept under good growth conditions for the test plants. After about 3 weeks, the efficacy of the preparations was scored visually in comparison with untreated controls as percentages.
(§5) For example, • 100% efficacy=plants have died, • 0% efficacy=like untreated control plants.
(§6) Tables A1a to A12c below show the effects of selected compounds of the general formula (I) according to table 1 on various harmful plants at an application rate corresponding to 1280 g/ha or less, which were obtained by the experimental procedure mentioned above.

[4] = test system: Echinochloa crus-galli (ECHCG); assay: A. Herbicidal pre-emergence efficacy, ECHCG; details: 1280 g/ha; scored visually after about 3 weeks vs untreated controls
Text: as §4, §5, §6

Kochia scoparia (KCHSC) [5] = assay: A. Herbicidal pre-emergence efficacy, KCHSC; details: pre-emergence, dosage 1280 g/ha
Text: as §4, §5, §6

Poa annua (POAAN) [6] = assay: A. Herbicidal pre-emergence efficacy, POAAN
Text: as §4, §5, §6

Setaria viridis (SETVI) = assay: A. Herbicidal pre-emergence efficacy, SETVI
Text: as §4, §5, §6

Stellaria media (STEME) [7] = assay: A. Herbicidal pre-emergence efficacy, STEME; details: dosage 1280 g/ha
Text: as §4, §5, §6

Veronica persica (VERPE) [8] = assay: A. Herbicidal pre-emergence efficacy, VERPE; details: 1280 g/ha
Text: as §4, §5, §6

[9] = test system: Amaranthus retroflexus (AMARE); assay: A. Herbicidal pre-emergence efficacy, AMARE
Text: as §4, §5, §6

[10] = test system: Abutilon theophrasti (ABUTH); assay: B. Herbicidal post-emergence efficacy, ABUTH; details: rated visually after about 3 weeks
Experimental: as §1, §2, §3

[11] = test system: Echinochloa crus-galli (ECHCG); assay: B. Herbicidal post-emergence efficacy, ECHCG; details: rated visually after about 3 weeks
Experimental: as §1, §2, §3

Kochia scoparia (KCHSC) [12] = assay: B. Herbicidal post-emergence efficacy, KCHSC; details: for Post-emergence efficacy against KCHSC in %: rated visually after about 3 weeks; for Post-emergence efficacy against KCHSC: 1280 g/ha
Experimental: as §1, §2, §3

Poa annua (POAAN) [13] = assay: B. Herbicidal post-emergence efficacy, POAAN; details: 1280 g/ha
Experimental: as §1, §2, §3

Stellaria media (STEME) [14] = assay: B. Herbicidal post-emergence efficacy, STEME
Experimental: as §1, §2, §3

| SMILES | Post-emergence efficacy against VERPE (Veronica persica (VERPE) [1]; 1280 g/ha) | Post-emergence efficacy against AMARE ([2]; 1280 g/ha) | Pre-emergence efficacy against DIGSA ([3]; 1280 g/ha) | Pre-emergence efficacy against KCHSC (Kochia scoparia (KCHSC) [5]) | Pre-emergence efficacy against POAAN (Poa annua (POAAN) [6]; dosage 1280 g/ha) | Pre-emergence efficacy against SETVI (Setaria viridis (SETVI); dosage 1280 g/ha) | Pre-emergence efficacy against AMARE in % ([9]; 320 g/ha) | Pre-emergence efficacy against AMARE in % ([9]; 1280 g/ha) | Post-emergence efficacy against ABUTH in % ([10]; 320 g/ha) | Post-emergence efficacy against ABUTH in % ([10]; 1280 g/ha) | Post-emergence efficacy against KCHSC in % (Kochia scoparia (KCHSC) [12]; 80 g/ha) | Post-emergence efficacy against KCHSC in % (Kochia scoparia (KCHSC) [12]; 320 g/ha) | Post-emergence efficacy against KCHSC (Kochia scoparia (KCHSC) [12]) | Post-emergence efficacy against STEME (Stellaria media (STEME) [14]; 1280 g/ha) | Post-emergence efficacy against VERPE (Veronica persica (VERPE) [1]; 80 g/ha) | Post-emergence efficacy against VERPE (Veronica persica (VERPE) [1]; 320 g/ha) | Post-emergence efficacy against AMARE ([2]; 80 g/ha) | Post-emergence efficacy against AMARE ([2]; 320 g/ha) | also measured |
| --- | --- | --- | --- | --- | --- | --- | --- | --- | --- | --- | --- | --- | --- | --- | --- | --- | --- | --- | --- |
| O=[N+]([O-])c1ccc(Oc2ccccc2OS(=O)(=O)CCCCl)nc1 [Example I-62] | 90% | 90% |  |  |  |  |  |  |  |  |  |  |  |  |  |  |  |  |  |
| O=S(=O)(CCCCl)Oc1ccccc1Oc1ccc(C(F)(F)F)cn1 [Example I-63] | 90% | 90% |  |  |  |  |  |  |  |  |  |  |  |  |  |  |  |  |  |
| O=S(=O)(CCCCl)Oc1ccccc1Oc1ncc(Cl)cc1F [Example I-64] | 90% | 90% | 100% | 90% | 100% | 100% | 90% | 100% | 90% | 90% | 90% | 90% | 90% | 90% | 90% | 90% | 90% | 90% | Pre-emergence efficacy against DIGSA ([3]; 320 g/ha): 90%; Pre-emergence efficacy against ECHCG [4]: 100%; Pre-emergence efficacy against STEME (Stellaria media (STEME) [7]): 90%; Pre-emergence efficacy against VERPE in % (Veronica persica (VERPE) [8]): 100%; Post-emergence efficacy against ECHCG in % ([11]; 1280 g/ha): 90%; Post-emergence efficacy against POAAN (Poa annua (POAAN) [13]): 90% |
| O=S(=O)(CCCCl)Oc1ccccc1Oc1ncc(Br)cc1F [Example I-65] | 90% | 90% | 90% |  | 90% |  |  | 100% |  | 90% |  |  |  | 90% |  |  |  | 90% |  |
| O=S(=O)(CCCC(F)(F)C(F)(F)F)Oc1c(Br)cccc1Oc1ncc(Cl)cn1 [Example I-67] | 100% | 100% | 90% | 100% |  | 100% | 100% | 100% | 90% | 100% | 90% | 100% | 100% | 100% | 90% | 100% | 100% | 100% | Pre-emergence efficacy against VERPE in % (Veronica persica (VERPE) [8]): 100%; Post-emergence efficacy against ABUTH in % ([10]; 80 g/ha): 90%; Post-emergence efficacy against POAAN (Poa annua (POAAN) [13]): 100%; Post-emergence efficacy against STEME (Stellaria media (STEME) [14]; 320 g/ha): 100% |
| O=S(=O)(CC1CC1(Cl)Cl)Oc1c(Br)cccc1Oc1ncc(Cl)cn1 (centres unmarked) [Example I-77] | 100% | 100% | 100% |  | 100% | 100% | 100% | 100% | 90% | 100% | 90% | 90% | 100% | 90% | 100% | 100% | 100% | 100% | Pre-emergence efficacy against DIGSA ([3]; 320 g/ha): 90%; Pre-emergence efficacy against POAAN (Poa annua (POAAN) [6]; dosage 320 g/ha): 100%; Pre-emergence efficacy against SETVI (Setaria viridis (SETVI); dosage 320 g/ha): 90%; Pre-emergence efficacy against STEME (Stellaria media (STEME) [7]): 90%; Post-emergence efficacy against ABUTH in % ([10]; 80 g/ha): 90%; Post-emergence efficacy against ECHCG in % ([11]; 320 g/ha): 90%; Post-emergence efficacy against ECHCG in % ([11]; 1280 g/ha): 100% |
| O=S(=O)(CC=C(Cl)Cl)Oc1c(Br)cccc1Oc1ncc(Cl)cn1 [Example I-84] | 100% | 100% |  | 90% |  | 100% | 90% | 100% |  | 90% |  | 90% | 100% | 100% | 100% | 100% | 90% | 100% |  |

From US20240174618A1, “SUBSTITUTED (2-HETEROARYLOXYPHENYL)SULFONATES, SALTS THEREOF AND THEIR USE AS HERBICIDAL AGENTS” (Bayer Aktiengesellschaft, priority 2021, published 2024)
